# Measurements taken from US7192746B2, “α-Isomaltosyltransferase, process for producing the same and use thereof” (Kabushiki Kaisha Hayashibara Seibutsu Kagaku Kenkyujo, priority 2000, dated 2007).
# Assays:
# amylopsin = target: T1, amylopsin (Homo sapiens, UniProt P04746); assay: Digestion test in vitro
# T1 sequence (P04746 16-511): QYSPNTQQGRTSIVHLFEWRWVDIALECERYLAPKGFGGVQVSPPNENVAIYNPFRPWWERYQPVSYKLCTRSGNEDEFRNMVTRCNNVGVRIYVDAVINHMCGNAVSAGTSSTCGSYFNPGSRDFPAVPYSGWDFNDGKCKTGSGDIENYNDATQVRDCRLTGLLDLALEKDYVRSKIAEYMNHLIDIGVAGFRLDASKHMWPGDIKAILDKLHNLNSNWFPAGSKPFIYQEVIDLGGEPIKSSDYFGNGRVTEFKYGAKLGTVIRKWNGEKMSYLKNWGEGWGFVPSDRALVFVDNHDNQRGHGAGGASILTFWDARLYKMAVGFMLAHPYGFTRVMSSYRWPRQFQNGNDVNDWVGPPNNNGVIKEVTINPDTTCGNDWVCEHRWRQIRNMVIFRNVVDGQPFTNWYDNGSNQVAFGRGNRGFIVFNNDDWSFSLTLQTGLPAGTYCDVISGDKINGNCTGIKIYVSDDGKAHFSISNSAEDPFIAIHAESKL
# [1] = system: small intestinal mucosal enzyme; assay: Digestion test in vitro
# Digestion test in vitro = conditions: Synthetic gastric juice
# Inclusion action = type: physicochemical
# Description: To 100 g of the aqueous solution was added 2 g of methanol, 3 g of ethanol, or 4.6 g of acetic acid to be included by the cyclotetrasaccharide. Thereafter, each of the resulting solutions was filtered to remove non-inclusion products, and the filtrate was lyophilized. As a control, similar inclusion products were prepared by using “ISOELITE™ P”, a branched cyclodextrin commercialized by Maruha K.K., Tokyo, Japan, known to have inclusion ability.
# To measure the amount of the inclusion products in the resulting lyophilized powders, one gram of each powder was dissolved in five milliliters water and extracted after admixing with five milliliters of diethylether. The extraction was repeated, and the resulting extracts were pooled and quantified on gas chromatography.
# mice = assay: Acute toxicity test; type: in vivo, mouse; conditions: oral
# Excerpt: Based on this, the LD50 of cyclotetrasaccharide was at least 50 g/kg mouse body weight.
# [2] = system: internal content of rat cecum; assay: Fermentation test; type: in vitro ADME
# Description: The internal content of rat cecum was collected by anesthetizing a Wister male rat with ether, allowing the rat to die, collecting the internal content under anaerobic conditions, and suspending the resultant with 4-fold volumes of a 0.1 M aqueous solution of sodium bicarbonate. Cyclotetrasaccharide was added in an amount of about 7% by weight to the weight of the internal contents of rat cecum, and the contents of cyclotetrasaccharide, which still remained just after and 12 hours after the addition of the internal contents, were quantified on gas chromatography.
# pH stability = type: physicochemical; conditions: 4% (w/v), 100° C., 24 hours; for Purity: HPLC
# Description: Eight milliliters of each solution was placed in a glass test tube, followed by sealing the test tube and heating the solution at 100° C. for 24 hours. After cooling under atmospheric conditions, each solution was measured for coloration degree and determined for purity on HPLC. The coloration degree was evaluated based on the absorbance in a cell with a 1-cm light pass at a wavelength of 480 nm.
# [3] = system: Bacteroides vulgatus JCM 5826 strain; assay: Assimilation test; type: cell-based; conditions: PYF medium with 0.5% saccharide, 37° C., four days, anaerobic
# [4] = Amino carbonyl reaction with glycine; type: physicochemical; conditions: 10% (w/v) with 1% (w/v) glycine, pH 7.0, 100° C.
# Description: Four milliliter aliquots of the resulting solution were placed in glass test tubes, sealed, and heated at 100° C. for 30 to 90 min. After allowing to stand for cooling at ambient temperature, each of the resulting solutions was measured for coloration degree to examine their amino carbonyl reactivity. The coloration degree was evaluated based on the absorbance in a cell with 1-cm light pass at a wavelength of 480 nm.
# [5] = system: Eubacterium aerofaciens ATCC 25986 strain; assay: Assimilation test; type: cell-based; conditions: PYF medium with 0.5% saccharide, 37° C., four days, anaerobic
# [6] = system: Lactobacillus acidophilus JCM 1132 strain; assay: Assimilation test; type: cell-based; conditions: PYF medium with 0.5% saccharide, 37° C., four days, anaerobic
# [7] = Amino carbonyl reaction with polypeptone; type: physicochemical; conditions: 10% (w/v) with 5% (w/v) polypeptone, 120° C., minus control
# Description: Four milliliter aliquots of the resulting solution were placed in glass test tubes, sealed, and heated at 120° C. for 30 to 90 min. After allowing to stand for cooling at ambient temperature, each of the resulting solution was measured for coloration degree to examine their amino carbonyl reactivity. In parallel, as a control, a solution with only polypeptone was provided and similarly treated as above. The coloration degree was evaluated based on the level of the absorbance, measured in a cell with 1-cm light pass at a wavelength of 480 nm, minus that of the control.
# [8] = Reducing power on the Somogyi-Nelson's method; type: physicochemical
# Thermostability = type: physicochemical; conditions: 10% (w/v) aqueous solution, 120° C.; for Purity: HPLC
# Description: After the heating, the aqueous solution was cooled under atmospheric conditions and measured for coloration degree and determined for purity on HPLC in Experiment 1. The coloration degree was evaluated based on the absorbance in a cell with a 1-cm light pass at a wavelength of 480 nm.
compound,measurement,setting,value
"OC[C@@H](O)[C@@H](O[C@H]1O[C@H](CO)[C@@H](O)[C@H](O)[C@H]1O)[C@H](O)[C@@H](O)CO [Maltitol, maltitol]",Decomposition percentage by digestive enzyme,amylopsin,0.0%
same,Decomposition percentage by digestive enzyme,[1],4.0%
same,Decomposition percentage by digestive enzyme,Digestion test in vitro,0.0%
"OCC1OC2OCC3O[C@H](O[C@H]4C(O)C(CO)OC(OCC5O[C@H](O[C@@H](C1O)C2O)C(O)C(O)[C@@H]5O)C4O)C(O)C(O)[C@@H]3O (stereo partly drawn) [Cyclotetrasaccharide, cyclo{→6)-α-D-glucopyranosyl-(1→3)-α-D-glucopyranosyl-(1→6)-α-D-glucopyranosyl-(1→3)-α-D-glucopyranosyl-(1→}]","Inclusion ability relative to the branched cyclodextrin, by weight",Inclusion action; higher than ISOELITE P,about 2 folds
same,Inclusion amount,Inclusion action; inclusion product Acetic acid,67.74 mg/g lyophilized powder
same,Inclusion amount,Inclusion action; inclusion product Ethanol,17.26 mg/g lyophilized powder
same,Inclusion amount,Inclusion action; inclusion product Methanol,6.71 mg/g lyophilized powder
same,Death at highest possible dose,mice,did not induce death of mouse
same,LD50,mice,at least 50 g/kg mouse body weight
same,Cyclotetrasaccharide remained without being fermented,[2]; 12 hours,93%
same,Content of cyclotetrasaccharide remaining,[2]; 12 hours after the addition,63.0 mg per one gram of the internal contents of rat cecum
same,Content of cyclotetrasaccharide remaining,[2]; just after the addition,68.0 mg per one gram of the internal contents of rat cecum
same,Coloration degree (A480 nm),pH stability; pH 2.0 (Acetate buffer),0.00
same,Purity,pH stability; pH 2.0 (Acetate buffer),93%
same,Coloration degree (A480 nm),pH stability; pH 3.0 (Acetate buffer),0.00
same,Purity,pH stability; pH 3.0 (Acetate buffer),100%
same,Coloration degree (A480 nm),pH stability; pH 4.0 (Acetate buffer),0.00
same,Purity,pH stability; pH 4.0 (Acetate buffer),100%
same,Coloration degree (A480 nm),pH stability; pH 5.0 (Acetate buffer),0.00
same,Purity,pH stability; pH 5.0 (Acetate buffer),100%
same,Coloration degree (A480 nm),pH stability; pH 6.0 (Tris-HCl buffer),0.00
same,Purity,pH stability; pH 6.0 (Tris-HCl buffer),100%
same,Coloration degree (A480 nm),pH stability; pH 7.0 (Tris-HCl buffer),0.00
same,Purity,pH stability; pH 7.0 (Tris-HCl buffer),100%
same,Coloration degree (A480 nm),pH stability; pH 8.0 (Tris-HCl buffer),0.00
same,Purity,pH stability; pH 8.0 (Tris-HCl buffer),100%
same,Coloration degree (A480 nm),pH stability; pH 9.0 (Ammonium buffer),0.00
same,Purity,pH stability; pH 9.0 (Ammonium buffer),100%
same,Coloration degree (A480 nm),pH stability; pH 10.0 (Ammonium buffer),0.00
same,Purity,pH stability; pH 10.0 (Ammonium buffer),100%
same,Assimilability,[3],− (negative (−) when the post culture had a pH of 6.0 or higher)
same,Coloration degree (A480 nm),[4]; heating time 0 min,0.00
same,Coloration degree (A480 nm),[4]; heating time 30 min,0.00
same,Coloration degree (A480 nm),[4]; heating time 60 min,0.00
same,Coloration degree (A480 nm),[4]; heating time 90 min,0.00
same,Assimilability,[5],− (negative (−) when the post culture had a pH of 6.0 or higher)
same,Assimilability,[6],− (negative (−) when the post culture had a pH of 6.0 or higher)
same,Coloration degree (A480 nm),[7]; heating time 0 min,0.00
same,Coloration degree (A480 nm),[7]; heating time 30 min,0.00
same,Coloration degree (A480 nm),[7]; heating time 60 min,0.00
same,Coloration degree (A480 nm),[7]; heating time 90 min,0.00
same,Reducing power,[8],below a detectable level
same,Coloration degree (A480 nm),Thermostability; heating time 0 min,0.00
same,Purity,Thermostability; heating time 0 min,100%
same,Coloration degree (A480 nm),Thermostability; heating time 30 min,0.00
same,Purity,Thermostability; heating time 30 min,100%
same,Coloration degree (A480 nm),Thermostability; heating time 60 min,0.00
same,Purity,Thermostability; heating time 60 min,100%
same,Coloration degree (A480 nm),Thermostability; heating time 90 min,0.00
same,Purity,Thermostability; heating time 90 min,100%
